pIC50: −log10 of the molar value.

For this test, the target named is Maltase-glucoamylase (Homo sapiens, UniProt O43451). Kind of test: Inhibition of alpha-glucosidase (unknown origin).
Chain of Maltase-glucoamylase (O43451 whole entry): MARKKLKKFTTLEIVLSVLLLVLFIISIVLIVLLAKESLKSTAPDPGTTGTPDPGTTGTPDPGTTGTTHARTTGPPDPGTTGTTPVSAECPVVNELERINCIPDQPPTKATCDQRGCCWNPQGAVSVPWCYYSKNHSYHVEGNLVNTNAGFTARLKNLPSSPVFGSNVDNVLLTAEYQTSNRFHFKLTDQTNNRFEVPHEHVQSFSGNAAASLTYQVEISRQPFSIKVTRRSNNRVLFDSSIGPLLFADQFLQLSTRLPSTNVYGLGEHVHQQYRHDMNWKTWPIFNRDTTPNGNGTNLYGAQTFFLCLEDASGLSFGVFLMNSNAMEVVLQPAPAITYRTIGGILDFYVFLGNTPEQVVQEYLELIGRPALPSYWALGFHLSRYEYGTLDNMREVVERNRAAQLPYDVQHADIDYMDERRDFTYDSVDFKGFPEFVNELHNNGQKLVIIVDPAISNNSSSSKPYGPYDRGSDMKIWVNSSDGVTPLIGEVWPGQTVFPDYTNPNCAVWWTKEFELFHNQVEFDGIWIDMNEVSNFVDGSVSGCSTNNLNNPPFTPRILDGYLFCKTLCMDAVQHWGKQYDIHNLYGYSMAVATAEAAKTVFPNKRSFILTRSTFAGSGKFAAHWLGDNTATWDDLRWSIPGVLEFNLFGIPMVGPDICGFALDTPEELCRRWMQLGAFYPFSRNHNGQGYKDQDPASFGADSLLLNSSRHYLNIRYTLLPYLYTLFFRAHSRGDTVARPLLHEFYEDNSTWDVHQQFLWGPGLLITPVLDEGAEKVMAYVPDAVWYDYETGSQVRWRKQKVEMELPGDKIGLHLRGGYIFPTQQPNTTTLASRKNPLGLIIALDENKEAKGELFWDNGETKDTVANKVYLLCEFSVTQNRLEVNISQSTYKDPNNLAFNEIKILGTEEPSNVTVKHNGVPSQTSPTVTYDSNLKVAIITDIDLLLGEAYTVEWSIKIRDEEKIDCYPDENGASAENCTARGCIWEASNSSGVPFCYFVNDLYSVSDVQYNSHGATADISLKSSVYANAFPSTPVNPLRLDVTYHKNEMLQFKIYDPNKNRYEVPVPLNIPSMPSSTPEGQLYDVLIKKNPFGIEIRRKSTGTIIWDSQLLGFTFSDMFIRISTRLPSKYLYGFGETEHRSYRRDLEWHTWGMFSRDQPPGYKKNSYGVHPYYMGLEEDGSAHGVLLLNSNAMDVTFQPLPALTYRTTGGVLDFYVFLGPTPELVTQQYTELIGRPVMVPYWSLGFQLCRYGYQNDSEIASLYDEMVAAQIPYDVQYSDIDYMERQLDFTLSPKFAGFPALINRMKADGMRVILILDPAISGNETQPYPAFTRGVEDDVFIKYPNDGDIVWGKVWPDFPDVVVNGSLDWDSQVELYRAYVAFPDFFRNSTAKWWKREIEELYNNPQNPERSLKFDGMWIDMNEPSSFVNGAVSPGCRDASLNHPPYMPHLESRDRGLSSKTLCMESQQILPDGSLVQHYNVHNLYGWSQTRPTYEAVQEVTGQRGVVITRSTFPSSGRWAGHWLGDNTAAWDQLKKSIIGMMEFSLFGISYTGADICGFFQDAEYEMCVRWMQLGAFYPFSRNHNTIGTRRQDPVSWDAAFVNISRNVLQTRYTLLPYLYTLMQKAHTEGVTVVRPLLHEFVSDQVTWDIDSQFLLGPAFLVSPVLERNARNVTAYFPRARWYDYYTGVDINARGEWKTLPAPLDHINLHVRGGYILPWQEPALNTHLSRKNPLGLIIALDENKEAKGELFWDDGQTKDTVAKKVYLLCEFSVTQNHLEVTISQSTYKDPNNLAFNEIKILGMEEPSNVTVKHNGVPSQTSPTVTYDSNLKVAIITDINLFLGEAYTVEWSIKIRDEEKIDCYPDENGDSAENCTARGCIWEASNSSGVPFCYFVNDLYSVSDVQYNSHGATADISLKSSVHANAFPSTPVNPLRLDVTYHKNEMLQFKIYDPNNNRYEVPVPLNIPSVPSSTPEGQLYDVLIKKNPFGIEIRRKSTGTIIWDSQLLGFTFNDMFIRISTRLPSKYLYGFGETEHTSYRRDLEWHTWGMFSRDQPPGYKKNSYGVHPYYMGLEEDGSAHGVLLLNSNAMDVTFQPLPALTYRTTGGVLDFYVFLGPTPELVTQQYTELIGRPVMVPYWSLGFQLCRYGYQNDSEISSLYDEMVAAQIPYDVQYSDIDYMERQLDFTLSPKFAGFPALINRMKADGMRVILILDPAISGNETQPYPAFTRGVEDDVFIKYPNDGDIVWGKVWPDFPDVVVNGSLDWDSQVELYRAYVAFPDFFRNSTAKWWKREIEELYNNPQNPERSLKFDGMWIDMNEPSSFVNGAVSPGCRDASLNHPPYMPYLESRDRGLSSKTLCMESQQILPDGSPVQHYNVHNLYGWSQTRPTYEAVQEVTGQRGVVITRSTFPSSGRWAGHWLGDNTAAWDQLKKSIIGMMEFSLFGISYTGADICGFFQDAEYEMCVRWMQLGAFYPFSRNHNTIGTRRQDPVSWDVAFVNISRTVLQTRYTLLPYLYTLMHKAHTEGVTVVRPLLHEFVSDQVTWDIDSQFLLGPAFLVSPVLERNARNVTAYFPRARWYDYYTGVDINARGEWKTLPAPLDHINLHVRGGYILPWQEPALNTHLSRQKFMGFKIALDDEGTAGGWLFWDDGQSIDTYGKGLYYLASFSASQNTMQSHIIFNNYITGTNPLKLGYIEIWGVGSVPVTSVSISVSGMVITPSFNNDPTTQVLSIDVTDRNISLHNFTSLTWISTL
In turn, `COc1ccc(CNC(=O)c2c(NC(=O)c3cccnc3)sc3c2CCC3)cc1` gave a pIC50 of 4.06. As to `O=C(Nc1sc2c(c1C(=O)NCc1ccccc1)CCC2)c1cccnc1`, the pIC50 is 4.08. This pIC50 and that of the molecule before are within 0.2 log units of each other. In the case of `COc1cc(CNC(=O)c2c(NC(=O)c3cccnc3)sc3c2CCC3)ccc1O` it was 4.03; in that of `COc1ccc(CNC(=O)c2c(NC(=O)c3cccnc3)sc3c2CCCC3)cc1`, 4.52. For `O=C(Nc1sc2c(c1C(=O)NCc1ccccc1)CCCC2)c1cccnc1` the value was 4.34; for `O=C(Nc1sc2c(c1C(=O)NCc1ccccn1)CCCC2)c1cccnc1`, 4.19. In the case of `O=C(Nc1sc2c(c1C(=O)NCc1cccnc1)CCCC2)c1cccnc1` it was 3.29.

Molecule `COc1cc(CNC(=O)c2c(NC(=O)c3cccnc3)sc3c2CCCC3)ccc1O` had a pIC50 of 5.00.

For `COC(=O)c1ccc(CNC(=O)c2c(NC(=O)c3cccnc3)sc3c2CCCC3)cc1`, the pIC50 was 4.06. This pIC50 lies 0.94 log units lower than the previous one.

In turn, `O=C(Nc1sc2c(c1C(=O)NCc1ccccc1)CCCCC2)c1cccnc1` showed a pIC50 of 4.20. Molecule `COc1cc(CNC(=O)c2c(NC(=O)c3cccnc3)sc3c2CCCCC3)ccc1O` gave a pIC50 of 4.45.

As a reminder, the pIC50 is the IC50 on a negative log10 scale, so that one unit is a factor of ten. Read a low pIC50 as a large IC50.
